Test results taken from US8388982B2, “Photo-induced damage mitigating agents and preparation and methods of use thereof” (priority 2008, dated 2013).

Columns and labels:
[1] = Fluorescence correlation spectroscopy (FCS) triplet-state quenching; conditions: Alexa568 in low oxygen
Experimental: Fluorescence correlation spectroscopy (FCS) is a commonly used technique for experimentally characterizing the dynamics of fluorescent species that was initially introduced in the early 1970's (Magde, D., et al, (1972) Phys. Rev. Lett. 29: 705-708). In FCS, light is focused on a sample in a very small detection volume, and the measured fluorescence intensity fluctuations (due to diffusion, physical or chemical reactions, aggregation, etc.) are analyzed using the temporal autocorrelation. Further details are provided, e.g., in Ehrenberg, M. et al. (1974) Chem Phys 4: 390-401; Elson, E. L., et al. (1974) Biopolymers 13: 1-27; Magde, D., et al. (1974) Biopolymers 13: 29-61; Thompson, N. L. (1991) Topics in Fluorescence Spectroscopy Techniques, Vol. 1, ed. J. R. Lakowicz (New York: Plenum) pp. 337-378; Hess, et al. (2002) Biochemistry 41: 697; and Krichevsky, O., et al. (2002) Rep. Prog. Phys. 65: 251-297.
FCS experiments using the fluorophore Alexa568 in low oxygen were used to monitor the amount of the dye triplet state upon excitation over time as a measure of triplet-state quenching by 6-hydroxy-2,5,7,8-tetramethylchroman-2-carboxylic acid and derivatives thereof. Briefly, these experiments were performed on a confocal microscope setup (Olympus IX71 with water-immersion objective UPlanSApo, 60×) using a single line laser excitation (532 nm) at 0.4-mW intensity and two single photon avalanche detectors (SPAD detectors; Perkin Elmer, Waltham, Mass.). The FCS measurements were done in a reaction buffer containing 50 mM ACES, pH 7.1; 75 mM potassium acetate; and 5 mM DTT. A protocatechuic acid/protocatechuate-3,4-dioxygenase (PCA/PCD) oxygen scavenging system (see, e.g., Aitken, et al. (2007) “An Oxygen Scavenging System for Improvement of Dye Stability in Single-Molecule Fluorescence Experiments,” Biophys J. 94:1826-1835) was included, as well. Correlation curves were generated and recorded by a FLEX digital photon correlator (Correlator.com; Bridgewater, N.J.), and analyzed using Origin8.0 (OriginLabs; Northampton, Mass.).
In these experiments, the photo-induced damage mitigating ability of the preparation of photomodified 6-hydroxy-2,5,7,8-tetramethylchroman-2-carboxylic acid (described above), an aged 6-hydroxy-2,5,7,8-tetramethylchroman-2-carboxylic acid solution (stored at −20° C. for ˜1 year), a freshly prepared 6-hydroxy-2,5,7,8-tetramethylchroman-2-carboxylic acid solution (prepared according to manufacturer's instructions), and fresh preparations treated with various UV exposure regimes were compared. The results are plotted as autocorrelation curves in FIG. 9, and the amplitude of the “hump” at around one microsecond (0.001 millisecond (ms)) to a few microseconds indicates the triplet fraction of the dye, so the smaller the amplitude, the better the triplet quencher. […] The aged solution was the second best performer with an autocorrelation amplitude of ˜0.07 at a lag time of 0.001 ms.
The effectiveness of the photomodified solutions and the purified Fraction A and Fraction B as triplet-state quenchers/radical scavengers was tested by fluorescence correlation spectroscopy (FCS) using Alexa568 in low oxygen, as described above in Example 1. Two different intensity of excitation settings, 0.2 mW and 0.4 mW, were used for power dependence.

polymerase = assay: Sequencing-by-incorporation readlength; assay type: biochemical; conditions: for readlengths compared with 6-hydroxy-2,5,7,8-tetramethylchroman-2-carboxylic acid / no PIDMA: single-molecule, real-time sequencing reactions, FIG. 17; for sequencing readlength: purified fractions, Example 7
Text: In yet another aspect, the present invention is directed to illuminated reactions for single molecule analysis, including sequencing of nucleic acids by observing incorporation of nucleotides into a nascent nucleic acid sequence during template-directed polymerase-based synthesis. Such methods, generally referred to as “sequencing-by-incorporation,” involve the observation of the addition of nucleotides or nucleotide analogs in a template-dependent fashion in order to determine the sequence of the template strand. See, e.g., U.S. Pat. Nos. 6,780,591, 7,037,687, 7,344,865, 7,302,146, and Eid, et al. (2009) Science 323:133-138, all of which are incorporated herein by reference in their entireties for all purposes. Processes for performing this detection include the use of fluorescently labeled nucleotide analogs within a confined observation region, e.g., within a nanoscale well and/or tethered, either directly or indirectly to a surface, By using excitation illumination (i.e., illumination of an appropriate wavelength to excite the fluorescent label and induce a detectable signal), the fluorescently labeled bases can be detected as they are incorporated into the nascent strand, thus identifying the nature of the incorporated base, and as a result, the complementary base in the template strand.
One particularly preferred aspect of the invention is in conjunction with the sequencing by incorporation of nucleic acids within an optical confinement, such as a zero mode waveguide, Such reactions involve observation of an extremely small reaction volume in which one or only a few polymerase enzymes and their fluorescent substrates may be present. Zero mode waveguides, and their use in sequencing applications are generally described in U.S. Pat. Nos. 6,917,726 and 7,033,764, and preferred methods of sequencing by incorporation are generally described in Published U.S. Patent Application No. 2003-0044781, the full disclosures of which are incorporated herein by reference in their entireties for all purposes, and in particular for their teachings regarding such sequencing applications and methods. Briefly, arrays of zero mode waveguides (“ZMWs”), configured in accordance with the present invention may be employed as optical confinements for single molecule analytical reactions, e.g., for nucleic acid (e.g., DNA, RNA) sequence determination. In particular, as noted above, these ZMWs provide extremely small observation volumes at or near the transparent substrate surface, also termed the “base” of the ZMW. A nucleic acid synthesis complex, e.g., template sequence, polymerase, and primer, which is immobilized at the base of the ZMW, may then be specifically observed during synthesis to monitor incorporation of nucleotides in a template dependent fashion, and thus provide the identity and sequences of nucleotides in the template strand. This identification is typically accomplished by providing detectable label groups, such as fluorescent labeling molecules, on the nucleotides. In some instances, the labeled nucleotides terminate primer extension, allowing a “one base at a time” interrogation of the complex. If, upon exposure to a given labeled base, a base is incorporated, its representative fluorescent signal may be detected at the base of the ZMW. If no signal is detected, then the base was not incorporated and the complex is interrogated with each of the other bases, in turn. Once a base is incorporated, the labeling group is removed, e.g., through the use of a photocleavable linking group, and where the label was not the terminating group, a terminator, upon the 3′ end of the incorporated nucleotide, may be removed prior to subsequent interrogation.
Experiments were performed to test the performance of pure 6-hydroxy-2,5,7,8-tetramethylchroman-2-carboxylic acid against various mixtures of 6-hydroxy-2,5,7,8-tetramethylchroman-2-carboxylic acid and derivatives thereof. […]

[2] = Saturation point of solutions for photomodification; assay type: physicochemical; conditions: solutions subjected to photomodification
Experimental: Of course, the amount of time for UV irradiation and room light exposure can be adjusted, as can the concentration of the 6-hydroxy-2,5,7,8-tetramethylchroman-2-carboxylic acid solution to be treated. For example, one to twenty-four hours of UV irradiation have been employed, as have 18 to 36 hours room light exposure. In general, and as shown in FIG. 9 described above, increasing UV exposures increase the ability of the mixture to effectively mitigate photo-induced damage, although there was no significant difference between the three, six, and 24 hour exposures (FIG. 9). Further, the solutions of 6-hydroxy-2,5,7,8-tetramethylchroman-2-carboxylic acid subjected to photomodification were typically of a concentration of 95-100 mM, which is near the saturation point for the compound. However, treatment of more or less concentrated solutions in contemplated and known chemical methods may be employed to increase the solubility of the compound prior to treatment.

[3] = Photolysis of Fraction A to Fraction B under UV, followed by reverse phase HPLC; assay type: physicochemical
Experimental: Fraction A was further converted to Fraction B by photolysis in a separate experiment. Specifically, purified Fraction A (reverse phase HPLC peak migration time of 9.791 minutes; FIG. 12A) was subjected to UV irradiation in water for one hour to produce Fraction B (reverse phase HPLC peak migration time of 14.891 minutes; FIG. 12B).

[4] = Brightness of Alexa A-647 dye; conditions: purified fractions
[5] = Example 3, FIG. 11A, 0.2 mW intensity of excitation
[6] = Example 3, FIG. 11B, 0.4 mW intensity of excitation

Row | SMILES | readlengths compared with 6-hydroxy-2,5,7,8-tetramethylchroman-2-carboxylic acid / no PIDMA (polymerase) | autocorrelation amplitude at a lag time of 0.001 ms [1, 5] | autocorrelation amplitude at a lag time of 0.001 ms [1, 6] | sequencing readlength (polymerase) | brightness of Alexa A-647 dye [4] | other results
1 | Cc1c(C)c2c(c(C)c1O)CCC(C)(C(=O)O)O2 (single isomer, unassigned) [6-hydroxy-2,5,7,8-tetramethylchroman-2-carboxylic acid, reference compound] | surprisingly similar to having no PIDMA present at all |  |  |  |  | autocorrelation amplitude at a lag time of 0.001 ms ([1]; Example 1, FIG. 9, 532 nm, 0.4 mW, smaller amplitude = better triplet quencher): ~0.2; proportion of sequencing reactions that attained a readlength of at least one-fifth the maximum (polymerase; 0.5 mM, FIG. 13): about 10%; proportion of sequencing reactions that attained a readlength of at least one-tenth of the maximum readlength (polymerase; 0.5 mM, FIG. 13): 60%; sequencing reactions that attained a readlength of at least 30% of the maximum (polymerase; 0.5 mM, FIG. 13): very few; concentration near the saturation point [2]: 95000 to 100000 µM
2 | CC1=C(C)C(=O)C(CCC(C)(O)C(=O)O)=C(C)C1=O (single isomer, unassigned) [Fraction A, 2-hydroxy-2-methyl-4-(2,4,5-trimethyl-3,6-dioxocyclohexa-1,4-dienyl)butanoic acid] | to a lesser extent | ~0.065 | ~0.043 |  |  | readlength compared with fresh 6-hydroxy-2,5,7,8-tetramethylchroman-2-carboxylic acid (polymerase; 0.05 mM purified Fraction A with 0.5 mM 6-hydroxy-2,5,7,8-tetramethylchroman-2-carboxylic acid, FIG. 13): much longer readlengths; readlength compared with fresh 6-hydroxy-2,5,7,8-tetramethylchroman-2-carboxylic acid (polymerase; 0.10 mM purified Fraction A with 0.5 mM 6-hydroxy-2,5,7,8-tetramethylchroman-2-carboxylic acid, FIG. 13): much longer readlengths; readlength compared with fresh 6-hydroxy-2,5,7,8-tetramethylchroman-2-carboxylic acid (polymerase; 0.25 mM purified Fraction A with 0.5 mM 6-hydroxy-2,5,7,8-tetramethylchroman-2-carboxylic acid, FIG. 13): much longer readlengths; conversion from Fraction A to Fraction B ([3]; UV irradiation in water for one hour): 80%; time until conversion is essentially complete ([3]; under a portable UV lamp): about four; half-life ([3]; water under UV irradiation, UV irradiation in water, read-out: half-life of conversion to Fraction B): 26 min
3 | CC(=O)CCC1=C(C)C(=O)C(C)=C(C)C1=O (single isomer, unassigned) [Fraction B, 2,3,5-trimethyl-6-(3-oxobutyl)-1,4-benzoquinone] |  | ~0.06 | ~0.04 |  |  | 
4 | CC1=C(C)C(=O)C2(CCC(C)(C(=O)O)O2)C(C)(O)C1=O (single isomer, unassigned) [fraction 5, 10-hydroxy-2,7,8,10-tetramethyl-6,9-dioxo-1-oxaspiro[4.5]dec-7-ene-2-carboxylic acid] | longer readlengths |  |  | significantly increase sequencing readlength | increase the brightness | 
5 | CC1=C(C)C(=O)C2(CCC(C)(C(=O)O)O2)C(C)(O)C1=O (single isomer, unassigned) [fraction 7, 10-hydroxy-2,7,8,10-tetramethyl-6,9-dioxo-1-oxaspiro[4.5]dec-7-ene-2-carboxylic acid] | longer readlengths |  |  | significantly increase sequencing readlength | increase the brightness | 
